In test [1] the test system is Methanococcus maripaludis. Kind of test: Inhibition of methane production by Methanococcus maripaludis culture (pressure drop after 24 h). Type of test: cell-based. To be noted: for Fold increase of Compound X combined with bromoform as compared to Compound X alone: bromoform 0.12 μM; for Inhibition of methane production by bromoform on its own: bromoform alone at 0.12 μM (very low concentration). On the procedure:
For this experiment, bromoform was prepped at 100 mM by adding 8.75 μl bromoform to 991 μl DMSO. This was diluted 10× to generate a 10 mM solution and further diluted to generate 0.12 mM stock solutions. Compound X stock solutions were prepared in DMSO (except for tannic acid, which was diluted in deionized water), to achieve the desired stock solutions required for testing. The experiment was set up by adding 5 ml of M141 medium (https://www.dsmz.de/microorganisms/medium/pdf/DSMZ_Medium141.pdf) to a screw cap Hungate tube followed by the addition of 5 μl Compound X and/or 5 μl bromoform or 5/10 μl DMSO as follows: • Tube 1: DMSO (10 μl) • Tube 2: Bromoform (5 μl, 0.120 mM) (120 nM final)+5 μl DMSO • Tube 3: Compound X (5 μl stock solution)+5 μl DMSO • Tube 4: Bromoform (5 μl 0.120 mM) (120 nM final)+Compound X (5 μl stock solution)
The concentration of Bromoform was fixed at 0.12 μM.
After the addition of the test substances, 500 μl of an overnight M. maripaludis culture was added to each reaction tube. Each tube was gassed with 80% H2/20% CO2 to 240 kPa and incubated at 37° C. for 24 h.
After the 24 h incubation the pressure inside the tube was measured using a manometer. Given that 5 moles of H2/CO2 are consumed to generate 1 mole of CH4 the drop in pressure observed was used to calculate the amount of methane by the control and test reactions from which a percent inhibition was calculated.
Table 1 below summarises the range of concentrations and the fold increase in inhibition of Compound X when tested with bromoform relative to the level of inhibition for Compound X when tested alone.

A further test concerns rumen fluid. Put plainly: In vitro rumen fluid fermentation assay (Gas Test), methane by gas chromatography. Type of test: cell-based, cows. Conditions: for Synergistic effect in methane inhibition: combined with iodoform. On the procedure: Various samples of single species, extracts, two-species combinations, and three-species combinations were assessed for their potential to inhibit methane production. This evaluation was carried out using in vitro fermentation assays known as Gas Tests. In each Gas Test, 250 mg of total meal ration (TMR) comprising 30% grass, 30% corn, and 40% complete feed was introduced into 100 ml serum vials as the substrate for the fermentation process. Rumen fluid, obtained from fistulated cows at the University of Reading, was mixed with degassed reaction buffer (1.6 L) and supplemented with Na2S (82 ml). Subsequently, 30 ml of the rumen fluid/buffer mixture was added to each serum vial.
The test substances were dissolved in 100% ethanol, and 100 μl of each test substance was added to the serum vials containing the rumen fluid/buffer mixture. All test substances and controls were examined in triplicate for each experiment. Once the test substances and controls were added, the vials were sealed with butyl rubber stoppers and aluminium crimps, then incubated at 39° C. for 24 hours. Following incubation, gas samples were collected from both the control and test vials, and methane levels were determined using gas chromatography.
For each test compound, the “percentage inhibition of methane produced” was calculated using the following formula: […]
The test substances underwent evaluation in three independent Gas Tests, and an average percentage inhibition was calculated for each substance.
Synergy between substances was determined using the Bliss Independence Model using the following equation: […]
Where IAB is the predicted percentage methane inhibition of both substances together and IA and IB are the observed percentage methane inhibitions of the individual substances. The predicted percentage methane inhibition of both substances (IAB) and the observed percent methane inhibition of both substances (Iob) are used to calculate the Combination index (Ci) as follows:
If the Ci<1 then the two substances are synergistic.
Synergy between substances was determined using the following calculation:
Where IABC is the predicted percentage methane inhibition of the three substances together and IA, IB and IC are the observed percentage methane inhibitions of the individual substances.
The predicted percentage methane inhibition of the three substances (IABC) and the observed percent methane inhibition of the combination of the three substances (Iob) are used to calculate the Combination index (Ci) as follows: […]

Where [2] appears, read: Bos taurus, sole compound, 25 μM, 24 h, three Gas Tests, read-out: Average of observed methane inhibition (%).
Where [3] appears, read: Bos taurus, 24 h, read-out: Average of observed methane inhibition (%).

What is called inhibition is the share of the control response that was lost under treatment.

Each structure is given as a SMILES string. Like-named read-outs stand apart in the source and are kept apart here.

`C=CCSSSCC=C` [Diallyl trisulfide, diallyl trisulfide]: the “Methane inhibition in combination with Bromoform (%)” value (shortened to “Methane inhibition … (%)”) in test [1] (Compound X 125 μM + bromoform 0.12 μM, 24 h) was 27.1%. The “Fold increase of Compound X combined with bromoform as compared to Compound X alone” value (“Fold increase of Compound X combined” below) in test [1] (Compound X 125 μM) worked out at 27.1 fold. Further, the inhibition at 125 µM in test [1] (Methanococcus maripaludis, Compound X 125 μM alone, 24 h, read-out: Methane inhibition of Compound X as a sole compound (%)) worked out at 1%. Further, in the test on rumen fluid (setting [2]), the inhibition at 25 µM is 11%. In the test with rumen fluid, the “Synergistic effect in methane inhibition” value is reported as “synergistic effects were observed”.
In the case of `IC(I)I` [Iodoform, iodoform], the inhibition at 2 µM with rumen fluid (Bos taurus, sole compound, 2 μM, 24 h, three Gas Tests, read-out: Average of observed methane inhibition (%)) amounted to 40.8%. Besides, the inhibition at 10 µM in the test on rumen fluid (Bos taurus, sole compound, 10 μM, 24 h, three Gas Tests, read-out: Average of observed methane inhibition (%)) was 98.3%.
For `O=C1C[C@@H](c2ccc(O)cc2)Oc2cc(O)cc(O)c21` [Naringenin], in test [1] (Compound X 100 μM + bromoform 0.12 μM, 24 h), the “Methane inhibition … (%)” value worked out at 90.3%. Besides, the “Fold increase of Compound X combined” value in test [1] (Compound X 100 μM) is recorded as 90.3 fold. Further, the inhibition at 100 µM in test [1] (Methanococcus maripaludis, Compound X 100 μM alone, 24 h, read-out: Methane inhibition of Compound X as a sole compound (%)) is 1%; with rumen fluid (Bos taurus, sole compound, 100 μM, 24 h, three Gas Tests, read-out: Average of observed methane inhibition (%)) it was 10%. Moreover, in the test with rumen fluid, the “Synergistic effect in methane inhibition” value was “synergistic effects were observed”.
`BrCBr` [Dibromomethane, dibromomethane]: in the test with rumen fluid (setting [3]), the inhibition at 0.5 µM came to 14.5% and the inhibition at 10 µM was 99%. In the test on rumen fluid, the “Synergistic effect in methane inhibition” value is on record as “synergistic effects were observed”.
As to `CCCSSCCC` [Dipropyl disulfide, dipropyl disulfide], in test [1] (Compound X 1 mM + bromoform 0.12 μM, 24 h), the “Methane inhibition … (%)” value came to 43.5%. Further, the “Fold increase of Compound X combined” value in test [1] (Compound X 1 mM) is 1.57 fold. The inhibition at 1000 µM in test [1] (Methanococcus maripaludis, Compound X 1 mM alone, 24 h, read-out: Methane inhibition of Compound X as a sole compound (%)) worked out at 27.7%. Also, the inhibition at 30 µM with rumen fluid (Bos taurus, sole compound, 30 μM, 24 h, three Gas Tests, read-out: Average of observed methane inhibition (%)) is 3%. The “Synergistic effect in methane inhibition” value in the test on rumen fluid is listed as “synergistic effects were observed”.
In the case of `CCCCCCC(C=O)=Cc1ccccc1` [α-Hexylcinnamaldehyde], in test [1] (Compound X 31.25 μM + bromoform 0.12 μM, 24 h), the “Methane inhibition … (%)” value is reported as 97.2%. Also, the “Fold increase of Compound X combined” value in test [1] (Compound X 31.25 μM) was 97.2 fold. For the same compound, the inhibition at 31.25 µM in test [1] (Methanococcus maripaludis, Compound X 31.25 μM alone, 24 h, read-out: Methane inhibition of Compound X as a sole compound (%)) came to 1%. Also, in the test with rumen fluid (setting [2]), the inhibition at 25 µM came out at 8%. For the same compound, the “Synergistic effect in methane inhibition” value with rumen fluid is “synergistic effects were observed”.
For the compound `BrC(Br)Br` [Bromoform, bromoform], the “Inhibition of methane production by bromoform on its own” value is given as “too low to inhibit methanogen on its own” in test [1] and “does not reduce or inhibit methane production” in test [1] (listed as bromoform). The inhibition at 0.1 µM with rumen fluid (setting [3]) is 1.3%. In addition, in the test on rumen fluid (setting [3]), the inhibition at 1 µM came out at 92.4%.
In the case of `C=CCSSCC=C` [Diallyl disulfide, diallyl disulfide], the “Methane inhibition … (%)” value in test [1] (Compound X 15.6 μM-250 μM (range tested) + bromoform 0.12 μM, 24 h) was 88.8%. In addition, the “Fold increase of Compound X combined” value in test [1] (Compound X 15.6 μM-250 μM (range tested)) was found to be 88.8 fold. Further, the inhibition at 15.6 µM in test [1] (Methanococcus maripaludis, 24 h, read-out: Methane inhibition of Compound X as a sole compound (%)) was 1%. The inhibition at 25 µM in the test with rumen fluid (setting [3]) was 5%.

The values are drawn from US20260248157A1, “COMPOSITIONS FOR REDUCING METHANE EMISSION” (MOOTRAL INNOVATIONS LIMITED, priority 2022, published 2026).
